Measurements: patent publication US20250109168A1, “POLYPEPTIDE AND USE THEREOF IN REGULATING BLOOD GLUCOSE LEVEL AND/OR REDUCING FAT” (Greenyn Biotechnology Co., Ltd, priority 2023, published 2025)

Assays:
p-IR/IR = test: Cell test: western blotting of p-IR/IR in C2C12 mouse myoblasts; format: cell-based; settings: for Insulin receptor phosphorylation (p-IR/IR), result in words: C2C12 cells, without induction by insulin, summary of Table 6; for p-IR/IR (change in expression): C2C12 mouse myoblasts, final concentration 20 μL/mL, 24 hours, western blotting
Procedure: (§1) C2C12 mouse myoblasts were obtained and were cultured in groups for 24 hours. After that, the culture medium of each group was added with human insulin (MedChemExpress LLC), polypeptide 1 of the present invention (SEQ ID No.: 1), polypeptide 2 of the invention (SEQ ID No.: 2), polypeptide 3 of the invention (SEQ ID No.: 3), polypeptide 4 of the invention (SEQ ID No.: 4), or polypeptide 5 (whose amino acid sequence number is SEQ ID No.: 5 and which was used for the control group) such that the final concentration of the added insulin/polypeptide in the culture medium was 20 μL/mL. The cells in each group were then cultured for another 24 hours, before the culture medium of each cell group was removed. The cells were subsequently washed with a phosphate-buffered solution, added with a radioimmunoprecipitation assay (RIPA) buffer containing a phosphatase inhibitor, and kept in a refrigerator, allowing reactions to take place for 30 minutes. Following that, the cells were thawed, subjected to vibration extraction with an ultrasonic vibrator for 5 minutes, and centrifuged. The supernatant of each cell group was collected and was analyzed by the western blotting method in order to determine changes in the expression of p-IR/IR, p-Akt, GLUT4, mTOR, PPARα, and p-AMPK in each cell group.

p-Akt = test: Cell test: western blotting of p-Akt in C2C12 mouse myoblasts; format: cell-based; settings: for Expression of phosphorylated Akt, result in words: C2C12 cells, without induction by insulin, summary of Table 6; for p-Akt (change in expression): C2C12 mouse myoblasts, final concentration 20 μL/mL, 24 hours, western blotting
Procedure: as §1

GLUT4 = test: Cell test: western blotting of GLUT4 in C2C12 mouse myoblasts; format: cell-based; settings: for Expression of GLUT4, result in words: C2C12 cells, without induction by insulin, summary of Table 6; for GLUT4 (change in expression): C2C12 mouse myoblasts, final concentration 20 μL/mL, 24 hours, western blotting
Procedure: as §1

PGC-1α = test: Cell test: western blotting of PGC-1α in C2C12 mouse myoblasts; format: cell-based; settings: for Expression of PGC-1α, result in words: C2C12 cells, without induction by insulin, summary of Table 6; for PGC-1α (change in expression): C2C12 mouse myoblasts, final concentration 20 μL/mL, 24 hours, western blotting
Procedure: [The source words this procedure for another target and reports this target under the same test.] as §1

mTOR = test: Cell test: western blotting of mTOR in C2C12 mouse myoblasts; format: cell-based; settings: final concentration 20 μL/mL, 24 hours
Procedure: as §1

PPARα = test: Cell test: western blotting of PPARα in C2C12 mouse myoblasts; format: cell-based; settings: for Expression of PPARα, result in words: C2C12 cells, without induction by insulin, summary of Table 6; for PPARα (change in expression): C2C12 mouse myoblasts, final concentration 20 μL/mL, 24 hours, western blotting
Procedure: as §1

p-AMPK = test: Cell test: western blotting of p-AMPK in C2C12 mouse myoblasts; format: cell-based; settings: final concentration 20 μL/mL, 24 hours
Procedure: as §1

insulin receptor = insulin receptor (mouse, UniProt P15208 28-1372); test: cell-based or functional assay
Sequence of insulin receptor (P15208 28-1372): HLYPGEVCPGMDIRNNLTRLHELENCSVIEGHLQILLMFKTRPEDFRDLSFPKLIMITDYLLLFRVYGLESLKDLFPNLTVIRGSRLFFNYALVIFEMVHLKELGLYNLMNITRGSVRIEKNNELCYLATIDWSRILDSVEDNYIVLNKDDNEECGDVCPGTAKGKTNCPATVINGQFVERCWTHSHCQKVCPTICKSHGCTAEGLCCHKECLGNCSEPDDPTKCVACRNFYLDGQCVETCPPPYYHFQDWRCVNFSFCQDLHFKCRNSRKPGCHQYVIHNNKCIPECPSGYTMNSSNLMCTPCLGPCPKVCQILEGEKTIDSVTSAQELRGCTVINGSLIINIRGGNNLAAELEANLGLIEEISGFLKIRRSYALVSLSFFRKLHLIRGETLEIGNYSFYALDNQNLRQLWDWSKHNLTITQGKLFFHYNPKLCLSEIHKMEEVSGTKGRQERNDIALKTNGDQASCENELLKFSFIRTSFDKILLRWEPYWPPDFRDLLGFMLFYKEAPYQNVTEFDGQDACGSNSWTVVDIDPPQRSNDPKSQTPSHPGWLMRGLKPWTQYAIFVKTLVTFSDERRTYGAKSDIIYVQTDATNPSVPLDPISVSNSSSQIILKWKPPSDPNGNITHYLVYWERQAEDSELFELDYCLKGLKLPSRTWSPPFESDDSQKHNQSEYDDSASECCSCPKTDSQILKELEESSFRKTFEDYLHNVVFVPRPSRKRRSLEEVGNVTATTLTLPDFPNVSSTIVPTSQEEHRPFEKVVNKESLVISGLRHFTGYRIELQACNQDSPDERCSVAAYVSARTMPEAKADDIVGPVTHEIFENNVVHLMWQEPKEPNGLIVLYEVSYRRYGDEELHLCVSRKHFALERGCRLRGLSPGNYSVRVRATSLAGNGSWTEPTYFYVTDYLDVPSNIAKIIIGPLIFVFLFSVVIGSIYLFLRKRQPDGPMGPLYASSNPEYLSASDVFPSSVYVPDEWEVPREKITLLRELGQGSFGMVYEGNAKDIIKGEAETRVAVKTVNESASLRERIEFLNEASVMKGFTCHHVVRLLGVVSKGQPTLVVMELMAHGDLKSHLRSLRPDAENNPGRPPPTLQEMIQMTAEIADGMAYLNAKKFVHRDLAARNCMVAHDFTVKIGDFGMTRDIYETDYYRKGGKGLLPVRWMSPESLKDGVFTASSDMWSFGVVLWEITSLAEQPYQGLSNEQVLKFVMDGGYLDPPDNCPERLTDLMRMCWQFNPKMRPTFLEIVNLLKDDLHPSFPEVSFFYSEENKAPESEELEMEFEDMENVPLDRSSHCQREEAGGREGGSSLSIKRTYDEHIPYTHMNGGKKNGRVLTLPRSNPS

GGGDATRYSTGGGYS [polypeptide 1]
Insulin receptor phosphorylation (p-IR/IR), result in words (p-IR/IR): able to encourage insulin receptor phosphorylation | Expression of phosphorylated Akt, result in words (p-Akt): increase the expression of phosphorylated Akt | p-Akt (change in expression) (p-Akt): +196% | Expression of GLUT4, result in words (GLUT4): increase the expression of phosphorylated Akt and GLUT4 | GLUT4 (change in expression) (GLUT4): +376% | Expression of PGC-1α, result in words (PGC-1α): enhance the expression of PGC-1α | PGC-1α (change in expression) (PGC-1α): +161% | mTOR (change in expression) (mTOR): +136% | Expression of PPARα, result in words (PPARα): enhance the expression of PGC-1α and PPARα | PPARα (change in expression) (PPARα): +173% | p-AMPK (change in expression) (p-AMPK): +232%

INPNEQREV [polypeptide 2]
Insulin receptor phosphorylation (p-IR/IR), result in words (p-IR/IR): able to encourage insulin receptor phosphorylation | Expression of phosphorylated Akt, result in words (p-Akt): increase the expression of phosphorylated Akt | p-Akt (change in expression) (p-Akt): +29% | Expression of GLUT4, result in words (GLUT4): increase the expression of phosphorylated Akt and GLUT4 | GLUT4 (change in expression) (GLUT4): +23% | Expression of PGC-1α, result in words (PGC-1α): enhance the expression of PGC-1α | PGC-1α (change in expression) (PGC-1α): +0% | mTOR (change in expression) (mTOR): +22% | Expression of PPARα, result in words (PPARα): enhance the expression of PGC-1α and PPARα | PPARα (change in expression) (PPARα): +62% | p-AMPK (change in expression) (p-AMPK): +70%

MQIFVK [polypeptide 4]
Insulin receptor phosphorylation (p-IR/IR), result in words (p-IR/IR): able to encourage insulin receptor phosphorylation | Expression of phosphorylated Akt, result in words (p-Akt): failure to increase the expression of phosphorylated Akt significantly | p-Akt (change in expression) (p-Akt): −3% | Expression of GLUT4, result in words (GLUT4): increase the expression of GLUT4 | GLUT4 (change in expression) (GLUT4): +156% | Expression of PGC-1α, result in words (PGC-1α): enhance the expression of PGC-1α | PGC-1α (change in expression) (PGC-1α): +155% | mTOR (change in expression) (mTOR): +74% | Expression of PPARα, result in words (PPARα): enhance the expression of PGC-1α and PPARα | PPARα (change in expression) (PPARα): +151% | p-AMPK (change in expression) (p-AMPK): +91%

MQIFVKTLTG [polypeptide 3]
Insulin receptor phosphorylation (p-IR/IR), result in words (p-IR/IR): able to encourage insulin receptor phosphorylation | Expression of phosphorylated Akt, result in words (p-Akt): increase the expression of phosphorylated Akt | p-Akt (change in expression) (p-Akt): +153% | Expression of GLUT4, result in words (GLUT4): increase the expression of phosphorylated Akt and GLUT4 | GLUT4 (change in expression) (GLUT4): +582% | Expression of PGC-1α, result in words (PGC-1α): enhance the expression of PGC-1α | PGC-1α (change in expression) (PGC-1α): +258% | mTOR (change in expression) (mTOR): +117% | Expression of PPARα, result in words (PPARα): enhance the expression of PGC-1α and PPARα | PPARα (change in expression) (PPARα): +196% | p-AMPK (change in expression) (p-AMPK): +210%

VATVIQVL [polypeptide 5, reference compound]
p-IR/IR (change in expression) (p-IR/IR): 1 | Expression of phosphorylated Akt, result in words (p-Akt): failed to increase the expression of phosphorylated Akt | p-Akt (change in expression) (p-Akt): −42% | Expression of GLUT4, result in words (GLUT4): weaker enhancing effect | GLUT4 (change in expression) (GLUT4): +34% | Expression of PGC-1α, result in words (PGC-1α): weaker enhancing effect | PGC-1α (change in expression) (PGC-1α): +3% | mTOR (change in expression) (mTOR): +0% | Expression of PPARα, result in words (PPARα): weaker enhancing effect | PPARα (change in expression) (PPARα): +23% | p-AMPK (change in expression) (p-AMPK): +7%

human insulin (MedChemExpress LLC) (from UniProt P01308 25-54; P01308 90-110) (ligand)
p-IR/IR (insulin receptor): 1.23

human insulin [reference compound]
p-IR/IR (change in expression) (p-IR/IR): 1.23 | p-Akt (change in expression) (p-Akt): +56% | GLUT4 (change in expression) (GLUT4): +41% | PGC-1α (change in expression) (PGC-1α): +50% | mTOR (change in expression) (mTOR): −2% | PPARα (change in expression) (PPARα): +40% | p-AMPK (change in expression) (p-AMPK): +1%

GGGDATRYSTGGGYS [Polypeptide 1]
p-IR/IR (insulin receptor): 1.81

INPNEQREV [Polypeptide 2]
p-IR/IR (insulin receptor): 1

MQIFVKTLTG [Polypeptide 3]
p-IR/IR (insulin receptor): 3.08

MQIFVK [Polypeptide 4]
p-IR/IR (insulin receptor): 1.97
